Data from PubChem BioAssay (NCI).
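Growth conditions: 96-well plates. Treatment: test compound, 48 hours, 5 concentrations. Analysis: linear interpolation between bracketing concentrations; unreached endpoints set to highest concentration. At the GI50, growth is halved. TGI: total growth inhibition.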

Experiments:
Test in all cases: NCI tumour cell line growth inhibition, 48 h
MDA-MB-231 breast = test system: MDA-MB-231 breast
HCC-2998 colon = test system: HCC-2998 colon
SF-539 CNS = test system: SF-539 CNS
EKVX NSCLC = test system: EKVX NSCLC
SK-MEL-2 melanoma = test system: SK-MEL-2 melanoma
MDA-MB-435 = test system: MDA-MB-435
HL-60(TB) leukemia = test system: HL-60(TB) leukemia
NCI-H23 lung = test system: NCI-H23 lung
HCT-15 colon = test system: HCT-15 colon
K-562 leukemia = test system: K-562 leukemia
SF-268 CNS = test system: SF-268 CNS
786-0 renal = test system: 786-0 renal
SNB-19 CNS = test system: SNB-19 CNS
OVCAR-4 ovarian = test system: OVCAR-4 ovarian
M14 melanoma = test system: M14 melanoma
SR leukemia = test system: SR leukemia
NCI-H226 lung = test system: NCI-H226 lung
IGROV1 ovarian = test system: IGROV1 ovarian
RXF 393 renal = test system: RXF 393 renal
PC-3 prostate = test system: PC-3 prostate
CAKI-1 renal = test system: CAKI-1 renal
SK-OV-3 ovarian = test system: SK-OV-3 ovarian
UO-31 renal = test system: UO-31 renal
MALME-3M melanoma = test system: MALME-3M melanoma
HOP-62 NSCLC = test system: HOP-62 NSCLC
A549 NSCLC = test system: A549 NSCLC
SW-620 colon = test system: SW-620 colon
MCF7 breast = test system: MCF7 breast
MDA-MB-468 breast = test system: MDA-MB-468 breast
T-47D breast = test system: T-47D breast
KM12 colon = test system: KM12 colon
MOLT-4 leukemia = test system: MOLT-4 leukemia
OVCAR-5 ovarian = test system: OVCAR-5 ovarian
OVCAR-3 ovarian = test system: OVCAR-3 ovarian
SF-295 CNS = test system: SF-295 CNS
TK-10 renal = test system: TK-10 renal
BT-549 breast = test system: BT-549 breast
OVCAR-8 ovarian = test system: OVCAR-8 ovarian
UACC-62 melanoma = test system: UACC-62 melanoma
RPMI-8226 leukemia = test system: RPMI-8226 leukemia
A498 renal = test system: A498 renal
U251 CNS = test system: U251 CNS
SN12C renal = test system: SN12C renal
CCRF-CEM leukemia = test system: CCRF-CEM leukemia
SK-MEL-28 melanoma = test system: SK-MEL-28 melanoma
COLO 205 colon = test system: COLO 205 colon
HCT-116 colon = test system: HCT-116 colon
NCI-H460 lung = test system: NCI-H460 lung
DU-145 prostate = test system: DU-145 prostate
ACHN renal = test system: ACHN renal
SK-MEL-5 melanoma = test system: SK-MEL-5 melanoma
HS 578T breast = test system: HS 578T breast
HT29 colon = test system: HT29 colon
SNB-75 CNS = test system: SNB-75 CNS
LOX IMVI melanoma = test system: LOX IMVI melanoma

## CC1=C(C(=O)OCc2ccccc2)C(c2cccc3ccccc23)n2c(nc3ccccc32)N1 (stereo not given)
MDA-MB-231 breast
  GI50: > 100 µM
  TGI: > 100 µM
HCC-2998 colon
  GI50: 7.58 µM
  TGI: > 100 µM
SF-539 CNS
  GI50: 3.22 µM
  TGI: > 100 µM
EKVX NSCLC
  GI50: 4.8 µM
  TGI: > 100 µM
SK-MEL-2 melanoma
  GI50: 2500 nM
  TGI: 7.66 µM
MDA-MB-435
  GI50: 1860 nM
  TGI: 4.68 µM
HL-60(TB) leukemia
  GI50: 2140 nM
  TGI: > 100 µM
NCI-H23 lung
  GI50: 32.6 µM
  TGI: > 100 µM
HCT-15 colon
  GI50: 3.61 µM
  TGI: > 100 µM
K-562 leukemia
  GI50: 1660 nM
  TGI: > 100 µM
SF-268 CNS
  GI50: 5.44 µM
  TGI: > 100 µM
786-0 renal
  GI50: 4.68 µM
  TGI: > 100 µM
SNB-19 CNS
  GI50: 5.8 µM
  TGI: > 100 µM
OVCAR-4 ovarian
  GI50: 6.36 µM
  TGI: > 100 µM
M14 melanoma
  GI50: 3.78 µM
  TGI: > 100 µM
SR leukemia
  GI50: 2400 nM
  TGI: > 100 µM
NCI-H226 lung
  GI50: 3.26 µM
  TGI: > 100 µM
IGROV1 ovarian
  GI50: 5.49 µM
  TGI: > 100 µM
RXF 393 renal
  GI50: 1510 nM
  TGI: 6.9 µM
PC-3 prostate
  GI50: 3.33 µM
  TGI: > 100 µM
CAKI-1 renal
  GI50: 2400 nM
  TGI: > 100 µM
SK-OV-3 ovarian
  GI50: 3.97 µM
  TGI: > 100 µM
UO-31 renal
  GI50: 4.64 µM
  TGI: > 100 µM
MALME-3M melanoma
  GI50: 3.84 µM
  TGI: > 100 µM
HOP-62 NSCLC
  GI50: 4.15 µM
  TGI: > 100 µM
A549 NSCLC
  GI50: 5.21 µM
  TGI: > 100 µM
SW-620 colon
  GI50: 3.62 µM
  TGI: > 100 µM
MCF7 breast
  GI50: 2710 nM
  TGI: > 100 µM
MDA-MB-468 breast
  GI50: 1930 nM
  TGI: 7.26 µM
T-47D breast
  GI50: 4.22 µM
  TGI: > 100 µM
KM12 colon
  GI50: 3.21 µM
  TGI: > 100 µM
MOLT-4 leukemia
  GI50: 2710 nM
  TGI: > 100 µM
OVCAR-5 ovarian
  GI50: > 100 µM
  TGI: > 100 µM
OVCAR-3 ovarian
  GI50: 2650 nM
  TGI: 7.58 µM
SF-295 CNS
  GI50: 3.04 µM
  TGI: > 100 µM
TK-10 renal
  GI50: > 100 µM
  TGI: > 100 µM
BT-549 breast
  GI50: 4.67 µM
  TGI: > 100 µM
OVCAR-8 ovarian
  GI50: 4.94 µM
  TGI: > 100 µM
UACC-62 melanoma
  GI50: 3.99 µM
  TGI: > 100 µM
RPMI-8226 leukemia
  GI50: 3.46 µM
  TGI: > 100 µM
A498 renal
  GI50: > 100 µM
  TGI: > 100 µM
U251 CNS
  GI50: 3.49 µM
  TGI: > 100 µM
SN12C renal
  GI50: 5.08 µM
  TGI: > 100 µM
CCRF-CEM leukemia
  GI50: 2690 nM
  TGI: > 100 µM
SK-MEL-28 melanoma
  GI50: > 100 µM
  TGI: > 100 µM
COLO 205 colon
  GI50: 3.22 µM
  TGI: > 100 µM
HCT-116 colon
  GI50: 3.19 µM
  TGI: > 100 µM
NCI-H460 lung
  GI50: 3.61 µM
  TGI: > 100 µM
DU-145 prostate
  GI50: 4.21 µM
  TGI: > 100 µM
ACHN renal
  GI50: 4.66 µM
  TGI: > 100 µM
SK-MEL-5 melanoma
  GI50: 3.37 µM
  TGI: 21.7 µM
HS 578T breast
  GI50: 2690 nM
  TGI: 8.82 µM
HT29 colon
  GI50: 2530 nM
  TGI: 8.29 µM
SNB-75 CNS
  GI50: 1390 nM
  TGI: 4.91 µM
LOX IMVI melanoma
  GI50: 5.7 µM
  TGI: > 100 µM
